Results published in ChEMBL document CHEMBL5500393, “Discovery and Optimization of Novel SaFabI Inhibitors as Specific Therapeutic Agents for MRSA Infection” (J Med Chem, 2024).
pIC50: −log10 of the molar value. Converted amounts (≈) assume the structure as drawn. The source made the active and inactive calls. The rule behind the calls is not given here.

Legend:
[1] = test system: Staphylococcus aureus; experiment: Antimicrobial activity against […] Staphylococcus aureus NRS271 measured after 24 hrs by CLSI protocol based microdilution method; type: functional
[2] = test system: Staphylococcus aureus; experiment: Antimicrobial activity against methicillin-susceptible Staphylococcus aureus ATCC25923 measured after 24 hrs by CLSI protocol based microdilution method; type: functional
[3] = biological target: T1, Enoyl-[acyl-carrier-protein] reductase [NADPH] FabI (Staphylococcus aureus) (UniProt Q6GI75); experiment: Binding affinity to N-terminal his 6 tagged Staphylococcus aureus Fabi (1 to […] residues) expressed in Escherichia coli BL21 assessed as change in melting temperature at 80 uM incubated for 20 mins in presence of NADPH by differential scanning fluorescence assay
T1 sequence (whole entry): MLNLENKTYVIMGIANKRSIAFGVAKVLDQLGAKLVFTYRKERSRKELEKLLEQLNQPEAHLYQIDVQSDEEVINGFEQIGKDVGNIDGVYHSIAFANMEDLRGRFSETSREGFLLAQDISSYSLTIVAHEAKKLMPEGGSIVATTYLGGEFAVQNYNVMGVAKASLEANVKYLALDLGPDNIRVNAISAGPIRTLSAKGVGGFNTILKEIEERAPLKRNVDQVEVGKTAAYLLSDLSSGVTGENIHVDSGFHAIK

[4] = test system: Staphylococcus aureus; experiment: In vivo antibacterial activity against methicilin-resistant Staphylococcus aureus ATCC33591 infected in BALB/c mouse skin infection model assessed as normal skin structure at 10 mg/kg administered daily for 4 days by H and E staining based analysis; type: functional, organism-based; settings: time 4.0 day
[5] = test system: Staphylococcus aureus; experiment: Antimicrobial activity against […] Staphylococcus aureus USA300 measured after 24 hrs by CLSI protocol based microdilution method; type: functional
[6] = test system: Staphylococcus aureus; experiment: In vivo antibacterial activity against methicilin-resistant Staphylococcus aureus ATCC33591 infected in BALB/c mouse skin infection model assessed as reduction in skin lesions at 10 mg/kg administered daily for 4 days (reference value: 48.3 mm2); type: functional; settings: time 4 day
[7] = test system: Staphylococcus aureus; experiment: In vivo antibacterial activity against methicilin-resistant Staphylococcus aureus ATCC33591 infected in BALB/c mouse skin infection model assessed as normal morphology at 10 mg/kg administered daily for 4 days by H and E staining based analysis; type: functional, organism-based; settings: time 4.0 day
[8] = test system: Staphylococcus aureus; experiment: Antimicrobial activity against […] Staphylococcus aureus ATCC33591 measured after 24 hrs by CLSI protocol based microdilution method; type: functional
[9] = biological target: T1, Enoyl-[acyl-carrier-protein] reductase [NADPH] FabI (Staphylococcus aureus); experiment: Inhibition of N-terminal his 6 tagged Staphylococcus aureus Fabi (1 to […] residues) expressed in Escherichia coli BL21 at 1 uM incubated for 30 mins in presence of NADPH by fluorescence based microplate reader analysis relative to control
[10] = test system: Staphylococcus aureus; experiment: Antimicrobial activity against methicillin-susceptible Staphylococcus aureus ATCC29213 measured after 24 hrs by CLSI protocol based microdilution method; type: functional
[11] = biological target: T2, Enoyl-[acyl-carrier-protein] reductase [NADPH] FabI (Staphylococcus aureus, UniProt Q6GI75); experiment: Inhibition of N-terminal his 6 tagged Staphylococcus aureus Fabi (1 to […] residues) expressed in Escherichia coli BL21 incubated for 30 mins in presence of NADPH by fluorescence based microplate reader analysis
T2 sequence (Q6GI75 whole entry): T1 sequence (whole entry)

[12] = test system: Staphylococcus aureus; experiment: In vivo antibacterial activity against methicilin-resistant Staphylococcus aureus ATCC33591 infected in BALB/c mouse skin infection model assessed as log reduction in bacterial count at 10 mg/kg administered daily for 4 days; type: functional; settings: time 4 day
[13] = test system: Staphylococcus aureus; experiment: Antimicrobial activity against […] Staphylococcus aureus ATCC33591 assessed as frequency of spontaneous resistance at 8 times MIC measured after 48 hrs by; type: functional
[14] = test system: Staphylococcus aureus; experiment: Antimicrobial activity against […] Staphylococcus aureus ATCC43300 measured after 24 hrs by CLSI protocol based microdilution method; type: functional
[15] = test system: Staphylococcus aureus; experiment: Antimicrobial activity against […] Staphylococcus aureus ATCC33591 assessed as frequency of spontaneous resistance at 16 times MIC measured after 48 hrs by; type: functional
[16] = test system: Staphylococcus aureus; experiment: Antimicrobial activity against […] Staphylococcus aureus ATCC33591 assessed as frequency of spontaneous resistance at 4 times MIC measured after 48 hrs by; type: functional

SMILES: Cc1c(Br)cccc1N1C[C@@H](c2nc3ccccc3n2C)CC1=O
- MIC [1]: 1 µg/mL (≈ 2.6 µM)
- MIC [2]: 0.5 µg/mL (≈ 1.3 µM)
- ΔTm [3]: 14.3 °C
- Activity [4]: Active
- MIC [5]: 0.5 µg/mL (≈ 1.3 µM)
- Activity [6]: 16.1 mm2
- Activity [7]: Active
- MIC [8]: 0.25 µg/mL (≈ 0.651 µM)
- inhibition [9]: > 85%
- MIC [10]: 0.5 µg/mL (≈ 1.3 µM)
- pIC50 [11]: 7.03
- log(activity) [12]: 6.8
- Activity [13]: <2.6 10^-10No_unit
- MIC [14]: 0.5 µg/mL (≈ 1.3 µM)
- Activity [15]: <2.6 10^-10No_unit
- Activity [16]: 3.8 10^-10No_unit
